What was measured:
[1] = target: T1, human A2a adenosine receptor (Homo sapiens, UniProt P29274); assay: A2a binding affinity using radioligand binding, Method (A); settings: Method (A): [3H]SCH58261 filtration binding, membranes expressing human A2a
T1 construct: purchased Perkin Elmer RBHA2aM400UA; host or cells: HEK293 or CHO cells (recombinant expression)
Description: (§1) Method (A) describes the procedure used to measure A2a binding affinity using radioligand binding. Method (B) describes the procedure used to measure A2a binding affinity using SPA technology. The method used to measure A2b binding affinity is also described below. The method used to determine the A2a IC50 value reported for each compound in the table is indicated next to the reported value. The A2b IC50 value measured using the A2b binding affinity assay is shown in the table next to the compound under the corresponding A2a value.
The A2a receptor affinity binding assay measured the amount of binding of a tritiated ligand with high affinity for the A2a adenosine receptor to membranes made from HEK293 or CHO cells recombinantly expressing the human A2a adenosine receptor, in the presence of varying concentrations of a compound of the invention. The data were generated using either filtration binding or a homogenous scintillation proximity assay (SPA).
Method (A): Measurement of A2a Binding Affinity Using Radioligand Binding
148 μL (5 μg/mL) membranes (Perkin Elmer, Cat. No. RBHA2aM400UA) and 2 μL compounds of the invention to be tested (test compound) were transferred to individual wells of a 96-well polypropylene assay plate and incubated for 15 to 30 minutes at room temperature. [^3H] SCH58261 ((7-(2-phenylethyl)-5-amino-2-(2-furyl)-pyrazolo-[4,3-e]-1,2,4-triazolo[1,5-c]pyrimidine)) was diluted in assay buffer (50 mM Tris pH 7.4, 10 mM MgCl2, 0.005% Tween20) to a concentration of 4 nM and 50 μL transferred to each well of the assay plate. To define total and non-specific binding, wells containing 1% DMSO and 1 μM ZM241385 (Tocris Bioscience, Cat. No. 1036) respectively, were also included. The assay plate was incubated at room temperature for 60 minutes with agitation. Using a FilterMate Harvester® (Perkin Elmer), the contents of the assay plate were filtered through a UniFilter-96® PEI coated plate (Perkin Elmer Cat. No. 6005274 or 6005277). Filtering was achieved by aspirating the contents of the assay plate for 5 seconds, then washing and aspirating the contents three times with ice-cooled wash buffer (50 mM Tris-HCl pH 7.4, 150 mM NaCl) and allowing the vacuum manifold to dry the plate for 30 seconds. The filter plate was incubated for at least 1 hour at 55° C. and allowed to dry. The bottom of the filter plate was sealed with backing tape. 40 μL Ultima Gold™ (Perkin Elmer, Cat. No. 6013329) was added to each well of the filter plate and the top of the plate was sealed with TopSeal-A PLUS® clear plate seal (Perkin Elmer, Cat. No. 6050185). The plate was incubated for at least 20 minutes, and then the amount of radioactivity remaining in each well was determined using a TopCount® (Perkin Elmer) scintillation counter. After normalization to total and non-specific binding, the percent effect at each compound concentration was calculated. The plot of percent effect versus the log of compound concentration was analyzed electronically using a 4-parameter logistic fit based on the Levenberg-Marquardt algorithm to generate IC50 values.

[2] = target: T2, human A2b adenosine receptor (Homo sapiens, UniProt P29275); assay: A2b binding affinity, radioligand filtration binding assay; settings: tritiated proprietary A2b antagonist, HEK293 membranes expressing human A2b
T2 construct: purchased Perkin Elmer ES-013-C; host or cells: HEK293 cells recombinantly expressing the receptor; membranes made from them
T2 sequence (P29275 1-332): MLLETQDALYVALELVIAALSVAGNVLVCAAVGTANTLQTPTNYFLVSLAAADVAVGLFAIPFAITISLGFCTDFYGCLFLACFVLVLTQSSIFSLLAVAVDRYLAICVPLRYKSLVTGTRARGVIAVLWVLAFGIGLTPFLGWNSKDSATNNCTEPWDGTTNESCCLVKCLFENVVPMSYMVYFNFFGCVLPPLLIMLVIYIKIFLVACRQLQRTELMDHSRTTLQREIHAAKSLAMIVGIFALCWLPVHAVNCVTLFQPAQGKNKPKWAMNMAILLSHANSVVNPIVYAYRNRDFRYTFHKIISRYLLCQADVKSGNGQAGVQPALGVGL
Description: as §1
Measurement of A2b Binding Affinity
The reported affinity of the compounds of the invention for the human A2b adenosine receptor was determined experimentally using a radioligand filtration binding assay. This assay measures the amount of binding of a tritiated proprietary A2b receptor antagonist, in the presence and absence of a compound of the invention, to membranes made from HEK293 cells recombinantly expressing the human A2b adenosine receptor (Perkin Elmer, Cat. No. ES-013-C).
148 μL (135 μg/mL) membranes and 2 μL test compounds were transferred to individual wells of a 96-well polypropylene assay plate and incubated for 15 to 30 minutes at room temperature with agitation. Tritiated radioligand was diluted to a concentration of 14 nM in assay buffer (phosphate buffered saline without Magnesium and Calcium, pH 7.4; GE Healthcare Life Sciences, Cat. No. SH30256.01) and then 50 μL of the solution were transferred to each well of the assay plate. To define total and non-specific binding, wells containing 1% DMSO and 20 μM N-ethylcarboxamidoadenosine (Tocris Bioscience, Cat. No. 1691) respectively, were also included. The wells of the assay plate were incubated at room temperature for 60 minutes with agitation, then filtered using a FilterMate Harvester® (Perkin Elmer) or similar equipment through a UniFilter-96® PEI coated plate (Perkin Elmer Cat. No. 6005274 or 6005277). Filtering was achieved by aspirating the contents of the assay plate for 5 seconds, then washing and aspirating the contents three times with ice-cooled wash buffer (assay buffer supplemented with 0.0025% Brij58) and allowing the vacuum manifold to dry the plate for 30 seconds. The filter plate was incubated for at least 1 hour at 55° C. and allowed to dry. The bottom of the filter plate was then sealed with backing tape. 40 μL Ultima Gold™ (Perkin Elmer, Cat. No. 6013329) was added to each well of the filter plate and the top of the plate was sealed with TopSeal-A PLUS® clear plate seal (Perkin Elmer, Cat. No. 6050185). The plates were then incubated for at least 20 minutes, and then the amount of radioactivity remaining in each well was determined using a TopCount® (Perkin Elmer) scintillation counter. After normalization to total and non-specific binding, the percent effect at each compound concentration was calculated. The plot of percent effect versus the log of compound concentration was analyzed electronically using a 4-parameter logistic fit based on the Levenberg-Marquardt algorithm to generate IC50 values.

T1 sequence (P29274 whole entry): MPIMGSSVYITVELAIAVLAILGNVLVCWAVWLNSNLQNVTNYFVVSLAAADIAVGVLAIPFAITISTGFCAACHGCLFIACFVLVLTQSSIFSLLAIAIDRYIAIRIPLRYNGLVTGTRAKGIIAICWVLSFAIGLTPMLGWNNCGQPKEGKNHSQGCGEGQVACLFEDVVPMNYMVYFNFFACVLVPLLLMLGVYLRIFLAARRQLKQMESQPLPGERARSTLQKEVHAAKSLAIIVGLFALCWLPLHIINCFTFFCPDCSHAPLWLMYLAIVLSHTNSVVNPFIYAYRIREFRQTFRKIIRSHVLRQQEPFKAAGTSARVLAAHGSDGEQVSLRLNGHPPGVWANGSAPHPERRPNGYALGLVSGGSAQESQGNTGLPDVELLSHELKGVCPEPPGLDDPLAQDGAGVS

| SMILES | IC50 [1] [µM] | IC50 [2] [µM] |
| --- | --- | --- |
| Cc1c(-c2ncco2)nc(N)n2nc(C3CCN(c4cnn(CC(C)(C)O)c4)C3)nc12 (single isomer, unassigned) [Example 3.15-1, (R or S)-1-(4-(3-(5-amino-8-methyl-7-(oxazol-2-yl)-[1,2,4]triazolo[1,5-c]pyrimidin-2-yl)pyrrolidin-1-yl)-1H-pyrazol-1-yl)-2-methylpropan-2-ol] | 0.0426 | 0.386 |
| Cc1c(-c2ncco2)nc(N)n2nc([C@@H]3CCCN(c4cnn(CC5(O)CCC5)c4)C3)nc12 [Example 3.8, (R)-1-((4-(3-(5-amino-8-methyl-7-(oxazol-2-yl)-[1,2,4]triazolo[1,5-c]pyrimidin-2-yl)piperidin-1-yl)-1H-pyrazol-1-yl)methyl)cyclobutan-1-ol] | 0.0027 | 0.191 |
| Cc1c(-c2cccc(F)c2)nc(Br)c2nc([C@H]3C[C@@H]3C(C)(C)O)nn12 (mixture of isomers) [Example 1.2, 2-((1S,2S and 1R,2R)-2-(8-bromo-6-(3-fluorophenyl)-5-methyl-[1,2,4]triazolo[1,5-a]pyrazin-2-yl)cyclopropyl)propan-2-ol] | 0.0233 | 0.202 |
| Cc1c(-c2ncco2)nc(N)n2nc([C@@H]3CC[C@H](C)NC3)nc12 [Example 2.9, 8-methyl-2-((3R,6S)-6-methylpiperidin-3-yl)-7-(oxazol-2-yl)-[1,2,4]triazolo[1,5-c]pyrimidin-5-amine] | 0.129 | 2.41 |
| Cc1c(-c2cccc(F)c2)nc(N)c2nc(C3CCC(C)(O)C3)nn12 (single isomer, unassigned) [Example 8.9, (1R,3S and 1S,3R) or (1R,3R and 1S,3S)-3-(8-amino-6-(3-fluorophenyl)-5-methyl-[1,2,4]triazolo[1,5-a]pyrazin-2-yl)-1-methylcyclopentan-1-ol] | 0.357 | 2.09 |
| CNC(=O)C(C)(C)n1cc(N2CCC[C@@H](c3nc4c(C)c(-c5ncco5)nc(N)n4n3)C2)cn1 [Example 3.4, (R)-2-(4-(3-(5-amino-8-methyl-7-(oxazol-2-yl)-[1,2,4]triazolo[1,5-c]pyrimidin-2-yl)piperidin-1-yl)-1H-pyrazol-1-yl)-N,2-dimethylpropanamide] | 0.0054 | 0.0855 |
| Cc1c(-c2ncco2)nc(N)n2nc([C@@H]3CCCN(c4cnn(C(C)C(C)(C)O)c4)C3)nc12 (single isomer, unassigned) [Example 2.10, (R or S)-3-(4-((R)-3-(5-amino-8-methyl-7-(oxazol-2-yl)-[1,2,4]triazolo[1,5-c]pyrimidin-2-yl)piperidin-1-yl)-1H-pyrazol-1-yl)-2-methylbutan-2-ol] | 0.0012 | 0.261 |
| Cc1cc(N2CCC[C@@H](c3nc4c(C)c(-c5ncco5)nc(N)n4n3)C2)cnc1OC(F)F [Example 3.13, (R)-2-(1-(6-(difluoromethoxy)-5-methylpyridin-3-yl)piperidin-3-yl)-8-methyl-7-(oxazol-2-yl)-[1,2,4]triazolo[1,5-c]pyrimidin-5-amine] | 0.0016 | 0.149 |
| Cc1c(-c2ncco2)nc(N)n2nc([C@@H]3CC[C@H](C)N(c4cnn(CC(C)(C)O)c4)C3)nc12 [Example 2.12, 1-(4-((2S,5R)-5-(5-amino-8-methyl-7-(oxazol-2-yl)-[1,2,4]triazolo[1,5-c]pyrimidin-2-yl)-2-methylpiperidin-1-yl)-1H-pyrazol-1-yl)-2-methylpropan-2-ol] | 0.001 | 0.0198 |
| Cc1c(-c2ncco2)nc(N)n2nc([C@@H]3CCCN(c4cnn(CC(F)(F)F)c4)C3)nc12 [Example 3.5, (R)-8-methyl-7-(oxazol-2-yl)-2-(1-(1-(2,2,2-trifluoroethyl)-1H-pyrazol-4-yl)piperidin-3-yl)-[1,2,4]triazolo[1,5-c]pyrimidin-5-amine] | 0.0013 | 0.0344 |
| Cc1c(-c2ncco2)nc(N)n2nc(C3CCCC(C)(O)C3)nc12 (single isomer, unassigned) [Example 8.2-1, (1-R or S,3-R or S)-3-(5-amino-8-methyl-7-(oxazol-2-yl)-[1,2,4]triazolo[1,5-c]pyrimidin-2-yl)-1-methylcyclohexan-1-ol] | 0.0306 | 5.55 |
| Cc1cc(N2CCC[C@@H](c3nc4c(C)c(-c5ncco5)nc(N)n4n3)C2)cn(C(F)F)c1=O [Example 3.14, (R)-5-(3-(5-amino-8-methyl-7-(oxazol-2-yl)-[1,2,4]triazolo[1,5-c]pyrimidin-2-yl)piperidin-1-yl)-1-(difluoromethyl)-3-methylpyridin-2(1H)-one] | 0.0002 | 0.116 |
| Cc1c(-c2cccc(F)c2)nc(N)c2nc(C3CCCC(C)(O)C3)nn12 (single isomer, unassigned) [Example 8.10-2, (1R,3S or 1S,3R or 1R,3R or 1S,3S)-1-3-(8-amino-6-(3-fluorophenyl)-5-methyl-[1,2,4]triazolo[1,5-a]pyrazin-2-yl)-1-methylcyclohexan-1-ol] | 0.363 | 2.54 |
| Cc1c(-c2cccc(F)c2)nc(N)n2nc([C@@H]3CCCNC3)nc12 [Example 2.4, (R)-7-(3-fluorophenyl)-8-methyl-2-(piperidin-3-yl)-[1,2,4]triazolo[1,5-c]pyrimidin-5-amine] | 0.0577 | 0.873 |
| Cc1c(-c2cc(F)ccc2F)nc(N)c2nc([C@@H]3CCCN(c4cnn(C)c4)C3)nn12 (single isomer, unassigned) [Example 2.6] | 0.218 | 0.436 |
| Cc1c(-c2cccc(F)c2)nc(N)n2nc([C@@H]3CCCN(c4cnn(CC(C)(C)O)c4)C3)nc12 [Example 3.11, (R)-1-(4-(3-(5-amino-7-(3-fluorophenyl)-8-methyl-[1,2,4]triazolo[1,5-c]pyrimidin-2-yl)piperidin-1-yl)-1H-pyrazol-1-yl)-2-methylpropan-2-ol] | 0.0292 | 0.542 |
